Measurements as given in patent US6518339B1, “Aldehyde emission reduction for dibenzylidene sorbitol clarified plastics” (Milliken & Company, priority 2000, dated 2003).

Legend:
[1] = Water solubility of the hydrazide/aldehyde reaction product; type: physicochemical; conditions: tap water; precipitate from adipic dihydrazide and 4-methylbenzaldehyde
Procedure: The reaction product of hydrazide and aldehyde was then tested for water solubility. The test involved the following: To a 10-ounce sample vial was charged 30 ml of tap water and 0.14 g (0.8 mmol) of adipic dihydrazide. This mixture was shaken until a clear, colorless solution was obtained. 4-Methylbezaldehyde (0.14 g, 1.3 mmol) was added to the solution and the mixture was shaken for one minute, immediately precipitating a white solid. The mixture was then allowed to stand for an additional ten minutes, followed by collection of the solids by suction filtration to obtain […] of the (bis 4-methyl)adiponylbis(hydrazone).

[2] = Retort test, UV/VIS measurement of extracted aldehyde (Japanese Pharmacopoeia protocol); conditions: hydrazide in formulation with 3,4-DMDBS, versus 3,4-DMDBS alone
Procedure: Testing was then conducted to determine the extent of aldehyde extraction from the compounded plastics. The testing procedures were as follows: Retort testing was performed per the Japanese Pharmacopoeia protocol (Japanese Pharmacopoeia, 13th ed. 1996: 76-82). Seven 50-mil plaques of each formulation were cut into 9 strips, rinsed with water, and placed into clean 1 quart Mason jars containing 200 ml of deionized water. The jars were covered with aluminum foil and autoclaved for 1 hour. The extraction water was then analyzed for UV absorbance between 220-240 nm and from 241-350 nm, after a suitable blank had been tested. Powderless latex gloves were worn during the entire procedure.

Structure (SMILES) | melting point [°C] | Water solubility, in words [1] | Reduction of peak absorbance between 220-240 nm [2] [%] | Reduction of peak absorbance between 241-350 nm [2] [%]
NNC(=O)CCCC(=O)NN [Example 4, Glutaric dihydrazide] | 176.3 to 178.6 |  |  | 
Cc1ccc(C=NNC(=O)CCCCC(=O)NN=Cc2ccc(C)cc2)cc1 [(bis 4-methyl)adiponylbis(hydrazone)] |  | substantially insoluble in water |  | 

Continued, in another order:

melting point [°C] | Water solubility, in words [1] | Structure (SMILES) | Reduction of peak absorbance between 220-240 nm [2] [%] | Reduction of peak absorbance between 241-350 nm [2] [%]
186.9 to 189.1 |  | NNC(=O)CCCCCCC(=O)NN [Example 6, Suberic dihydrazide] |  | 
182.5 to 185.5 |  | NNC(=O)CCCCC(=O)NN [Example 2, Adipic dihydrazide] |  | 
183.2 to 185 |  | NNC(=O)CCCCCC(=O)NN [Example 5, Pimelic dihydrazide] | 70 | 80
